Measurements: patent publication US9458110B2, “Phenylpyrazole derivatives as potent ROCK1 and ROCK2 inhibitors” (BRISTOL-MYERS SQUIBB COMPANY, priority 2013, dated 2016)

Experiments:
ROCK2 = ROCK2 (Homo sapiens (Human), UniProt O75116); assay: ROCK assay (Caliper LABCHIP peptide phosphorylation), ROCK2; assay type: biochemical; settings: 5 μM ATP, 1.5 μM peptide substrate;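 also: reaction stopped with EDTA, then phosphorylated and unphosphorylated peptide resolved by microfluidic electrophoresis, kinase inhibition computed at each compound concentration in dose-response series, DMSO under 2%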
Chain of ROCK2 (O75116 whole entry, species assumed): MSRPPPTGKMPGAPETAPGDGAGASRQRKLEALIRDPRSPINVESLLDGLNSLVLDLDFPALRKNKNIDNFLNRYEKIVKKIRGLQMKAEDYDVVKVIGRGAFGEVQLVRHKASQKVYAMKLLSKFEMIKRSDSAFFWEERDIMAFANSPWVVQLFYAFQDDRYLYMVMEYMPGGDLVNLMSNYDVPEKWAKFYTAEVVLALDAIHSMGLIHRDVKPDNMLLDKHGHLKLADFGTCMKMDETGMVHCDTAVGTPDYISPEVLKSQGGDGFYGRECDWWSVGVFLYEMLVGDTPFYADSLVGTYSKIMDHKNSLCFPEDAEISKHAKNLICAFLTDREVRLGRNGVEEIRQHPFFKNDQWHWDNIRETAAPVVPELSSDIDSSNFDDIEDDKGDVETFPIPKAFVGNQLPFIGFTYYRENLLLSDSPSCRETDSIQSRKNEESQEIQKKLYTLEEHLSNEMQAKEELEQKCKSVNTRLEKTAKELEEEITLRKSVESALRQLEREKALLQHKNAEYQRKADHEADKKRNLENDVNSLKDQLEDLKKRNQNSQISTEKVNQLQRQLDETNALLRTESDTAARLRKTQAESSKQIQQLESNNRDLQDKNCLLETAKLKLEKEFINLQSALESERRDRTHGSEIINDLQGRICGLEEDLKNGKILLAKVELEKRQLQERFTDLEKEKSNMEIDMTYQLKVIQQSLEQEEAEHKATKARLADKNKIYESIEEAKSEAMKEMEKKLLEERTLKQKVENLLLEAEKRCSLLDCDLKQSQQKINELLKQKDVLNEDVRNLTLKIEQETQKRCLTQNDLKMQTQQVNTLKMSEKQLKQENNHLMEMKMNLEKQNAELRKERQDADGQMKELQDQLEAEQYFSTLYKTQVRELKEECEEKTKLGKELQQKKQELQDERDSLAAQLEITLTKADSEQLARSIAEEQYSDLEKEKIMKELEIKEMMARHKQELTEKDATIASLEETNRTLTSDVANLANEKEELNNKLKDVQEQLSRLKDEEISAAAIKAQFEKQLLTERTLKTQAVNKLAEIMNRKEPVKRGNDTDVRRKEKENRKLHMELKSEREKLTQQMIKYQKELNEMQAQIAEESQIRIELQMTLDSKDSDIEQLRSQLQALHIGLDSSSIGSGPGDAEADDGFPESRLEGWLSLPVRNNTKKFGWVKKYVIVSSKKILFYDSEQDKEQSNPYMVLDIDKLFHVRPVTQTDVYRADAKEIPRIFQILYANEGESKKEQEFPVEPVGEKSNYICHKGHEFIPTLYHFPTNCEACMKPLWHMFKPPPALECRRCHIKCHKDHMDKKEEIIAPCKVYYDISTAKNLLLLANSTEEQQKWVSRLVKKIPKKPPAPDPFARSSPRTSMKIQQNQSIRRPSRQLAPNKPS

ROCK1 = ROCK1 (Homo sapiens (Human), UniProt Q13464); assay: ROCK assay (Caliper LABCHIP peptide phosphorylation), ROCK1; assay type: biochemical; settings: 5 μM ATP, 1.5 μM peptide substrate;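 also: Read-out is separation of phosphorylated from unphosphorylated peptide, with kinase activity inhibition computed at every concentration of a dose-response series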
Chain of ROCK1 (Q13464 whole entry, species assumed): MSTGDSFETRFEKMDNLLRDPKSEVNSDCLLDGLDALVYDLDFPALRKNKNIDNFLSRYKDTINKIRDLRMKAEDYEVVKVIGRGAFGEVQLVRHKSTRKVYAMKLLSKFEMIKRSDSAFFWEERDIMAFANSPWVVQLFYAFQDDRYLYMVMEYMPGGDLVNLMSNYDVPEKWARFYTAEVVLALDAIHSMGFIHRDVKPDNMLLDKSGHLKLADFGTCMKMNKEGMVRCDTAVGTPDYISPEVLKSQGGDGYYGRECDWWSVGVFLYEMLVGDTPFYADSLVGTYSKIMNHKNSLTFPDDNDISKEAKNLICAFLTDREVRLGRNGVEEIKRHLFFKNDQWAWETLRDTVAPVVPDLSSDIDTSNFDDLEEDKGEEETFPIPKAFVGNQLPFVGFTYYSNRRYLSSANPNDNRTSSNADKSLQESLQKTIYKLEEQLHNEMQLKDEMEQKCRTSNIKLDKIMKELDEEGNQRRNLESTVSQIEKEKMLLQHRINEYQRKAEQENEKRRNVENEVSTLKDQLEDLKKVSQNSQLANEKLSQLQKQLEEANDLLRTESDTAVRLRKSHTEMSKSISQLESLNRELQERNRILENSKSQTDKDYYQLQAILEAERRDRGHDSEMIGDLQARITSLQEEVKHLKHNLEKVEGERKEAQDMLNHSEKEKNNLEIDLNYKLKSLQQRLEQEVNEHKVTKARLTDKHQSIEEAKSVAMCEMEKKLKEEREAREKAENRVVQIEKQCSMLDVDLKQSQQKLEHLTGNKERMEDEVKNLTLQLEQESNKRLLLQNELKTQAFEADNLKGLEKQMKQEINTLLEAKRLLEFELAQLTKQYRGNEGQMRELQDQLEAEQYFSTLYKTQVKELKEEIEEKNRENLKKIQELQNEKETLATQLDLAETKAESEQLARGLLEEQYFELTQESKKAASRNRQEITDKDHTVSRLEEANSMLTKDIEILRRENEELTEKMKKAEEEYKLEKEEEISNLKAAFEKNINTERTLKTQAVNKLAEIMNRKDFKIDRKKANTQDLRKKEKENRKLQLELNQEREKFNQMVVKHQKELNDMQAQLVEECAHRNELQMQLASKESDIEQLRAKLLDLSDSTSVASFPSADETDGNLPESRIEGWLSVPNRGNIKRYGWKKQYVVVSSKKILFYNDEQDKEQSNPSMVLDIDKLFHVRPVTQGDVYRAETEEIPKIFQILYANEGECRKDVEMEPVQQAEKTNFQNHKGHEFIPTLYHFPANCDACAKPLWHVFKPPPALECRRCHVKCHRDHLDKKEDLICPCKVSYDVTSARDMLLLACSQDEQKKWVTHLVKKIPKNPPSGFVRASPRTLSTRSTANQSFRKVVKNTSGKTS

Compound | IC50 (ROCK2) [nM] | IC50 (ROCK1) [nM]
Cc1n[nH]cc1-c1cc(OCCN(C)C)c(C(=O)N[C@H](C)c2ccccc2)cc1F [Example 309, 2-[2-(dimethylamino)ethoxy]-5-fluoro-4-(3-methyl-1H-pyrazol-4-yl)-N-[(1R)-1-phenylethyl]benzamide] | 771 | > 2000
C[C@@H](NC(=O)c1ccc(-c2cn[nH]c2)c(S(C)(=O)=O)c1)c1ccccc1 [Example 188, 3-methanesulfonyl-N-[(1R)-1-phenylethyl]-4-(1H-pyrazol-4-yl)benzamide] | 208 | > 2000
COc1cc(C(=O)NCc2cccc(N(C)C(C)=O)c2)ccc1-c1cn[nH]c1 [Example 100, 3-methoxy-N-{[3-(N-methyl-acetamido)phenyl]methyl}-4-(1H-pyrazol-4-yl)benzamide] | 299 | 4080
COc1cc(C(=O)NCCc2ccc(F)cc2)ccc1-c1cn[nH]c1 [Example 24, N-(4-fluorophenethyl)-3-methoxy-4-(1H-pyrazol-4-yl)benzamide] | 15.6 | 37.4
COc1cc(C(=O)NC[C@@H](O)c2cccc(Cl)c2)ccc1-c1cn[nH]c1 [Example 127, N-[(2S)-2-(3-chlorophenyl)-2-hydroxyethyl]-3-methoxy-4-(1H-pyrazol-4-yl)benzamide] | 32.1 | 23.4
COc1ccc(F)c(C(C)NC(=O)c2ccc(-c3cn[nH]c3)c(OC)c2)c1 (stereo not drawn) [Example 139, N-[1-(2-fluoro-5-methoxy-phenyl)ethyl]-3-methoxy-4-(1H-pyrazol-4-yl)benzamide] | 47.2 | 172
COc1cc(C(=O)NCCc2ccc(C(F)(F)F)cc2)ccc1-c1cn[nH]c1 [Example 121, 3-methoxy-4-(1H-pyrazol-4-yl)-N-{2-[4-(trifluoro-methyl)phenyl]ethyl} benzamide] | 78.1 | 166
COc1cc(C(=O)NCC(c2ccccc2)N2CCCC2)ccc1-c1cn[nH]c1 (stereo not drawn) [Example 125, 3-methoxy-N-[2-phenyl-2-(pyrrolidin-1-yl)ethyl]-4-(1H-pyrazol-4-yl)benzamide] | 84.9 | 156
Cc1cc(C(=O)NCc2cccc(C(=O)O)c2)ccc1-c1cn[nH]c1 [Example 239, 3-({[3-methyl-4-(1H-pyrazol-4-yl)phenyl] formamido}methyl) benzoic acid] | 11.5 | 61.4
COc1cc(C(=O)NCCc2cccc(C(F)(F)F)c2)ccc1-c1cn[nH]c1 [Example 120, 3-methoxy-4-(1H-pyrazol-4-yl)-N-{2-[3-(trifluoro-methyl)phenyl]ethyl} benzamide] | 52 | 94.6
COc1cc(C(=O)NC(C)c2cccc(CN3CCN(C)CC3)c2)ccc1-c1cn[nH]c1 (racemic) [Example 81, (+/−)-3-methoxy-N-(1-(3-((4-methylpiperazin-1-yl)methyl)phenyl)ethyl)-4-(1H-pyrazol-4-yl)benzamide] | 28.3 | 156
CC(NC(=O)c1ccc(-c2cn[nH]c2)c(C(F)F)c1)c1ccccc1F (racemic) [Example 299, 3-(Difluoromethyl)-N-(1-(2-fluorophenyl)ethyl)-4-(1H-pyrazol-4-yl)benzamide] | 53.3 | 110
N#Cc1cc(C(=O)N[C@H](CO)c2ccccc2)ccc1-c1cn[nH]c1 [Example 194, 3-cyano-N-[(1S)-2-hydroxy-1-phenylethyl]-4-(1H-pyrazol-4-yl)benzamide] | 152 | 510
COc1cc(-c2cn[nH]c2)cc(F)c1C(=O)N[C@H](C)c1ccccc1 [Example 312, 2-fluoro-6-methoxy-N-[(1R)-1-phenylethyl]-4-(1H-pyrazol-4-yl)benzamide] | 1490 | > 2000
COc1cc(C(=O)NCc2cccc(N3CCCC3)c2)ccc1-c1cn[nH]c1 [Example 87, 3-methoxy-4-(1H-pyrazol-4-yl)-N-{[3-(pyrrolidin-1-yl)phenyl]methyl} benzamide] | 130 | 724
CCc1ccccc1CNC(=O)c1ccc(-c2cn[nH]c2)c(OC)c1 [Example 180, N-[(2-ethylphenyl)methyl]-3-methoxy-4-(1H-pyrazol-4-yl)benzamide] | 15.3 | 36.4
COc1cc(C(=O)NCc2cccc(CN(C)C)c2)ccc1-c1cn[nH]c1 [Example 85, N-({3-[(dimethylamino)methyl]phenyl}methyl)-3-methoxy-4-(1H-pyrazol-4-yl)benzamide] | 474 | 2510
Nc1cc(-c2cn[nH]c2)ccc1C(=O)NCCCc1ccccc1 [Example 220, 2-amino-N-(3-phenylpropyl)-4-(1H-pyrazol-4-yl)benzamide] | 201 | 321
COc1cc(-c2cn[nH]c2)c(F)cc1C(=O)N[C@H](C)c1ccccc1 [Example 190, 5-fluoro-2-methoxy-N-[(1R)-1-phenylethyl]-4-(1H-pyrazol-4-yl)benzamide] | 16.7 | 37.1
Cc1cc(C(=O)N[C@H](CN(C)C)c2ccccc2)ccc1-c1cn[nH]c1 [Example 263, N-[(1S)-2-(Dimethylamino)-1-phenylethyl]-3-methyl-4-(1H-pyrazol-4-yl)benzamide] | 3.94 | 6.45
COc1cc(C(=O)NC(Cc2ccccc2)C(C)=O)ccc1-c1cn[nH]c1 (stereo not drawn) [Example 187, 3-methoxy-N-(3-oxo-1-phenylbutan-2-yl)-4-(1H-pyrazol-4-yl)benzamide] | 14 | 23
COc1cc(C(=O)NCc2ccc(F)c(OC)c2F)ccc1-c1cn[nH]c1 [Example 50, N-(2,4-difluoro-3-methoxybenzyl)-3-methoxy-4-(1H-pyrazol-4-yl)benzamide] | 16.7 | 64
COc1ccccc1CCNC(=O)c1ccc(-c2cn[nH]c2)c(OC)c1 [Example 126, 3-methoxy-N-[2-(2-methoxyphenyl)ethyl]-4-(1H-pyrazol-4-yl)benzamide] | 1350 | 155
COc1ccc(F)c(CNC(=O)c2ccc(-c3cn[nH]c3)c(C)c2)c1 [Example 148, N-[(2-fluoro-5-methoxyphenyl)methyl]-3-methyl-4-(1H-pyrazol-4-yl)benzamide] | 51.2 | 174
C[C@@H](NC(=O)c1ccc(-c2cn[nH]c2)c(CO)c1)c1ccc(F)cc1 [Example 271, N-[(1R)-1-(4-Fluorophenyl)ethyl]-3-(hydroxymethyl)-4-(1H-pyrazol-4-yl)benzamide] | 75 | 3450

The next lines start with the values.

IC50 (ROCK2) [nM] | IC50 (ROCK1) [nM] | Compound
3.59 | 11.7 | COc1cc(C(=O)NCc2c(F)cccc2Cl)ccc1-c1cn[nH]c1 [Example 105, N-[(2-chloro-6-fluorophenyl)methyl]-3-methoxy-4-(1H-pyrazol-4-yl)benzamide]
0.4 | 2.39 | CCNC(=O)c1cccc(CNC(=O)c2ccc(-c3cn[nH]c3)c(OC)c2)c1 [Example 237, N-{[3-(ethylcarbamoyl)phenyl]methyl}-3-methoxy-4-(1H-pyrazol-4-yl)benzamide]
1.2 | 7.7 | COc1cc(C(=O)NCc2cccc(C(=O)O)c2)ccc1-c1cn[nH]c1 [Example 64, 3-((3-Methoxy-4-(1H-pyrazol-4-yl)benzamido)methyl)benzoic acid]
2.46 | 22.9 | COc1cc(C(=O)NCc2c(F)ccc(F)c2F)ccc1-c1cn[nH]c1 [Example 97, 3-methoxy-4-(1H-pyrazol-4-yl)-N-[(2,3,6-trifluorophenyl)methyl] benzamide]
8.87 | 43.3 | COc1cccc([C@@H](C)NC(=O)c2ccc(-c3cn[nH]c3)cc2F)c1 [Example 62, (R)-2-Fluoro-N-(1-(3-methoxyphenyl)ethyl)-4-(1H-pyrazol-4-yl)benzamide]
6.66 | 19.2 | COc1ccc(F)c(C(C)NC(=O)c2ccc(-c3cn[nH]c3)cc2OC)c1 (stereo not drawn) [Example 203, N-[1-(2-fluoro-5-methoxyphenyl)ethyl]-2-methoxy-4-(1H-pyrazol-4-yl)benzamide]
0.46 | 3.24 | COc1cc(C(=O)NCc2cccc(C(=O)NCC(C)(C)O)c2)ccc1-c1cn[nH]c1 [Example 234, N-({3-[(2-hydroxy-2-methylpropyl)carbamoyl]phenyl}methyl)-3-methoxy-4-(1H-pyrazol-4-yl)benzamide]
2.53 | 4.6 | COc1cc(-c2cn[nH]c2)ccc1C(=O)NC(CN)Cc1ccccc1 (stereo not drawn) [Example 233, N-(1-amino-3-phenylpropan-2-yl)-2-methoxy-4-(1H-pyrazol-4-yl)benzamide]
8.99 | 17.7 | COc1cc(C(=O)NC(C)c2ccccc2Cl)ccc1-c1cn[nH]c1 (racemic) [Example 4, (+/−)-N-(1-(2-chlorophenyl)ethyl)-3-methoxy-4-(1H-pyrazol-4-yl) benzamide]
2.6 | 12.8 | COc1cc(C(=O)NCc2ccccc2)ccc1-c1cn[nH]c1 [Example 27, N-benzyl-3-methoxy-4-(1H-pyrazol-4-yl) benzamide]
2.89 | 11.3 | COc1cc(C(=O)N[C@H](CNS(=O)(=O)C2CC2)c2ccccc2)ccc1-c1cn[nH]c1 [Example 261, N-[(1S)-2-cyclopropane-sulfonamido-1-phenylethyl]-3-methoxy-4-(1H-pyrazol-4-yl)benzamide]
0.65 | 2.15 | COc1cccc([C@@H](C)NC(=O)c2ccc(-c3c[nH]nc3C)cc2OC)c1 [Example 305, 4-(3-Methyl-1H-pyrazol-4-yl)-2-methoxy-N-[(1R)-1-(3-methoxyphenyl)ethyl]benzamide]
6.33 | 24.6 | COc1cc(C(=O)NCc2cccc(NS(C)(=O)=O)c2)ccc1-c1cn[nH]c1 [Example 94, N-[(3-methanesulfon-amidophenyl)methyl]-3-methoxy-4-(1H-pyrazol-4-yl)benzamide]
2.28 | 16.9 | COc1cccc(CNC(=O)c2ccc(-c3cn[nH]c3)c(C)c2)c1 [Example 58, N-(3-Methoxybenzyl)-3-methyl-4-(1H-pyrazol-4-yl)benzamide]
